Experiment [1] has as its target T1, RpfC (full-length, in liposomes) (Xanthomonas campestris, UniProt P0C0F7). The experiment in a line: […] autophosphorylation assay, RpfC liposomes. Type of experiment: biochemical. The settings on record: activation of autokinase; 100 µM ATP, pH 7.8, 5 mM MgCl2, 28 °C.
The target in experiment [2] is T1, RpfC (full-length, in liposomes). The experiment in a line: label-free microscale thermophoresis, RpfC liposomes. Format: binding. The settings on record: 50 mM Tris-HCl pH 7.8, 150 mM NaCl, 10 mM MgCl2, 0.1% Pluronic F-127. In general terms: MST reads how a fluorescent partner responds to local heating, with and without ligand.

Each structure is given as a SMILES string.

T1 sequence (P0C0F7 whole entry): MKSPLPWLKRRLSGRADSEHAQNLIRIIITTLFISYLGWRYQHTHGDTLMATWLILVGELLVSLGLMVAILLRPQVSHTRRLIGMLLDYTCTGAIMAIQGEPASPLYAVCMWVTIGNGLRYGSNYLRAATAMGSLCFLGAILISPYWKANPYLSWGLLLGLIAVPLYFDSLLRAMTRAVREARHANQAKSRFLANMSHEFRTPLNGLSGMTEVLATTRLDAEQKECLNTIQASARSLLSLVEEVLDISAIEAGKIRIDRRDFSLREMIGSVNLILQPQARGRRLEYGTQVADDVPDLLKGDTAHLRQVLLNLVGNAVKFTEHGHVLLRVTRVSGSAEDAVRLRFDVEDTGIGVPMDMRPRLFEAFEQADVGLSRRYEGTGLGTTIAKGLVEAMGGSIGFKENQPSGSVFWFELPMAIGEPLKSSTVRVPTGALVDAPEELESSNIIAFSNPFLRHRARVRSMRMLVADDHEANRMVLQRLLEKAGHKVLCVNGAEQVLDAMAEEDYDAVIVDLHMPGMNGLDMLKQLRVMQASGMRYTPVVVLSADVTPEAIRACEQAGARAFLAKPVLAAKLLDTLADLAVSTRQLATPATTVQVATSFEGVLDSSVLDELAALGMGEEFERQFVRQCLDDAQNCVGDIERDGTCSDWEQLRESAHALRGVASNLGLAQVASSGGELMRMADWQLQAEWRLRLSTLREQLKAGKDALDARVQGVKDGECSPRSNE

In general, EC50 refers to the concentration giving half of the maximal effect. High values mean a less potent agent, low ones a more potent agent. Consider `CCCCCCCCC/C=C\C(=O)O` [BDSF, cis-2-dodecenoic acid], for which the EC50 in experiment [1] was about 60 nM.

Broadly, the Kd is a measure of binding affinity in units of concentration. Read a low Kd as a tighter complex. In turn, `CCCCCCCCC/C=C/C(=O)O` [trans-BDSF] returned a Kd in experiment [2] of 11200 ± 950 nM. The same compound returned an EC50 in experiment [1] of 1110 nM.

The values are drawn from paper doi:10.1101/2022.01.03.474871v1 (biorxiv, 2022).
